From patent publication US12064402B2, “Binge behavior regulators” (Clearmind Medicine Inc., priority 2014, dated 2024)

What was measured:
[1] = amount of alcoholic beverage drunk in a binge session after the drinking regulator; format: in vivo; conditions: 70 mg of drinking regulator; for amount of beer drunk in a binge session: reduced from 1.5 liter; for amount of wine drunk in a binge session: reduced from 1000 ml
Protocol: In exemplary embodiments, administration of the amount of 70 mg of drinking regulator selected form Compound 1 or Compound 2 described herein reduced the amount of beer drunk in a binge session from 1.5 liter to 0.5 liter, or the amount of wine drunk in a binge session from 1000 ml to 250 ml.

[2] = over six months, when used with counseling; cited from earlier work

Structure (SMILES)	amount of beer drunk in a binge session [1]	amount of wine drunk in a binge session [1]	cut drinking [2]
COc1ccc2c(c1)CC(N)C2 (centres unmarked) [Compound 1, 5-methoxy-2-aminoindan]	0.5 L	250 mL	–
COc1cc2c(cc1OC)CC(N)C2 [Compound 2, 5,6-dimethoxy-2-aminoindan]	0.5 L	250 mL	–
C=C1CC[C@@]2(O)[C@H]3Cc4ccc(O)c5c4[C@@]2(CCN3CC2CC2)[C@H]1O5 [Nalmefene]	–	–	61%
